Data reported in ChEMBL document CHEMBL2413072, “Synthesis and in vitro anticancer studies of novel C-2 arylidene congeners of lantadenes” (2013).

Assays:
Assay type in all cases: functional
[1] = test system: A498; test: Growth inhibition of human A498 cells assessed as cell growth at 10^-8 M by sulforhodamine B assay; conditions: read-out: Activity
[2] = test system: HOP-92; test: Growth inhibition of human HOP92 cells by sulforhodamine B assay
[3] = test system: A498; test: Growth inhibition of human A498 cells assessed as cell growth at 10^-6 M by sulforhodamine B assay; conditions: read-out: Activity
[4] = test system: SF-268; test: Growth inhibition of human SF268 cells assessed as cell growth at 10^-6 M by sulforhodamine B assay; conditions: read-out: Activity
[5] = test system: HCT-116; test: Growth inhibition of human HCT116 cells assessed as cell growth at 10^-8 M by sulforhodamine B assay; conditions: read-out: Activity
[6] = test system: HL-60(TB); test: Growth inhibition of human HL-60(TB) cells assessed as cell growth at 10^-6 M by sulforhodamine B assay; conditions: read-out: Activity
[7] = test system: K562; test: Growth inhibition of human K562 cells assessed as cell growth at 10^-8 M by sulforhodamine B assay; conditions: read-out: Activity
[8] = test system: KM12; test: Growth inhibition of human KM12 cells assessed as cell growth at 10^-8 M by sulforhodamine B assay; conditions: read-out: Activity
[9] = test system: OVCAR-3; test: Growth inhibition of human OVCAR3 cells assessed as cell growth at 10^-8 M by sulforhodamine B assay; conditions: read-out: Activity
[10] = test system: SR; test: Growth inhibition of human SR cells assessed as cell growth at 10^-8 M by sulforhodamine B assay; conditions: read-out: Activity
[11] = test system: RPMI-8226; test: Growth inhibition of human RPMI8226 cells assessed as cell growth at 10^-4 M by sulforhodamine B assay; conditions: read-out: Activity
[12] = test system: SK-OV-3; test: Growth inhibition of human SKOV3 cells assessed as cell growth at 10^-4 M by sulforhodamine B assay; conditions: read-out: Activity
[13] = test system: UACC-257; test: Growth inhibition of human UACC257 cells by sulforhodamine B assay
[14] = test system: MDA-MB-435; test: Growth inhibition of human MDA-MB-435 cells assessed as cell growth at 10^-6 M by sulforhodamine B assay; conditions: read-out: Activity
[15] = test system: OVCAR-4; test: Growth inhibition of human OVCAR4 cells assessed as cell growth at 10^-8 M by sulforhodamine B assay; conditions: read-out: Activity
[16] = test system: CAKI-1; test: Growth inhibition of human CAKI-1 cells assessed as cell growth at 10^-4 M by sulforhodamine B assay; conditions: read-out: Activity
[17] = test system: SNB-19; test: Growth inhibition of human SNB19 cells assessed as cell growth at 10^-8 M by sulforhodamine B assay; conditions: read-out: Activity
[18] = test system: SF-539; test: Growth inhibition of human SF539 cells assessed as cell growth at 10^-6 M by sulforhodamine B assay; conditions: read-out: Activity
[19] = test system: SK-MEL-28; test: Growth inhibition of human SK-MEL-28 cells assessed as cell growth at 10^-7 M by sulforhodamine B assay; conditions: read-out: Activity
[20] = test system: SF-295; test: Growth inhibition of human SF295 cells assessed as cell growth at 10^-4 M by sulforhodamine B assay; conditions: read-out: Activity
[21] = test system: IGROV-1; test: Growth inhibition of human IGROV1 cells by sulforhodamine B assay
[22] = test system: 786-0; test: Growth inhibition of human 786-0 cells assessed as cell growth at 10^-8 M by sulforhodamine B assay; conditions: read-out: Activity
[23] = test system: SK-OV-3; test: Growth inhibition of human SKOV3 cells assessed as cell growth at 10^-8 M by sulforhodamine B assay; conditions: read-out: Activity
[24] = test system: M14; test: Growth inhibition of human M14 cells by sulforhodamine B assay
[25] = test system: NCI-H23; test: Growth inhibition of human NCI-H23 cells assessed as cell growth at 10^-8 M by sulforhodamine B assay; conditions: read-out: Activity
[26] = test system: 786-0; test: Growth inhibition of human 786-0 cells by sulforhodamine B assay
[27] = test system: UO-31; test: Growth inhibition of human UO31 cells assessed as cell growth at 10^-6 M by sulforhodamine B assay; conditions: read-out: Activity
[28] = test system: SK-MEL-5; test: Growth inhibition of human SK-MEL-5 cells assessed as cell growth at 10^-6 M by sulforhodamine B assay; conditions: read-out: Activity
[29] = test system: MDA-MB-231; test: Growth inhibition of human MDA-MB-231 cells assessed as cell growth at 10^-7 M by sulforhodamine B assay; conditions: read-out: Activity
[30] = test system: HOP-62; test: Growth inhibition of human HOP62 cells assessed as cell growth at 10^-6 M by sulforhodamine B assay; conditions: read-out: Activity
[31] = Growth inhibition of human HCC2998 cells assessed as cell growth at 10^-8 M by sulforhodamine B assay; conditions: HCC 2998, read-out: Activity
[32] = test system: CCRF-CEM; test: Growth inhibition of human CCRF-CEM cells by sulforhodamine B assay
[33] = test system: M14; test: Growth inhibition of human M14 cells assessed as cell growth at 10^-7 M by sulforhodamine B assay; conditions: read-out: Activity
[34] = test system: A549; test: Growth inhibition of human A549/ATCC cells assessed as cell growth at 10^-7 M by sulforhodamine B assay; conditions: read-out: Activity
[35] = test system: HL-60(TB); test: Growth inhibition of human HL-60(TB) cells assessed as cell growth at 10^-4 M by sulforhodamine B assay; conditions: read-out: Activity
[36] = test system: TK-10; test: Growth inhibition of human TK10 cells assessed as cell growth at 10^-8 M by sulforhodamine B assay; conditions: read-out: Activity
[37] = test system: SK-MEL-2; test: Growth inhibition of human SK-MEL-2 cells assessed as cell growth at 10^-4 M by sulforhodamine B assay; conditions: read-out: Activity
[38] = test system: SNB-75; test: Growth inhibition of human SNB75 cells by sulforhodamine B assay
[39] = test system: NCI-H460; test: Growth inhibition of human NCI-H460 cells by sulforhodamine B assay
[40] = test system: DU-145; test: Growth inhibition of human DU145 cells assessed as cell growth at 10^-8 M by sulforhodamine B assay; conditions: read-out: Activity
[41] = read-out: LC50 (the source's name)
[42] = read-out: pLC50 (the source's name) (converted)

SMILES: C/C=C(/C)C(=O)O[C@@H]1CC(C)(C)C[C@H]2C3=CC[C@@H]4[C@@]5(C)CCC(=O)C(C)(C)[C@@H]5CC[C@@]4(C)[C@]3(C)CC[C@@]12C(=O)O [LANTADENE A]
- growth at 0.01 µM [1]: 83%
- GI50 ([2]; read-out: GI50): 1.19 µM
- CC50 [2, 41]: > 100 µM
- TGI ([2]; read-out: TGI): 5.36 µM
- GI50 ([2]; read-out: pGI50 (converted)): 1.2 µM
- CC50 [2, 42]: > 100 µM
- TGI ([2]; read-out: pTGI (converted)): 5.37 µM
- growth at 1 µM [3]: 72%
- growth at 1 µM [4]: 98%
- growth at 0.01 µM [5]: 94%
- growth at 1 µM [6]: 80%
- growth at 0.01 µM [7]: 110%
- growth at 0.01 µM [8]: 103%
- growth at 0.01 µM [9]: 109%
- growth at 0.01 µM [10]: 84%
- growth at 100 µM [11]: 10%
- growth at 100 µM [12]: 32%
- GI50 ([13]; read-out: GI50): 4.81 µM
- CC50 [13, 41]: > 100 µM
- TGI ([13]; read-out: TGI): > 100 µM
- GI50 ([13]; read-out: pGI50 (converted)): 4.79 µM
- CC50 [13, 42]: > 100 µM
- TGI ([13]; read-out: pTGI (converted)): > 100 µM
- growth at 1 µM [14]: 90%
- growth at 0.01 µM [15]: 95%
- growth at 100 µM [16]: 20%
- growth at 0.01 µM [17]: 93%
- growth at 1 µM [18]: 106%
- growth at 0.1 µM [19]: 95%
- growth at 100 µM [20]: -6%
- GI50 ([21]; read-out: GI50): 6.75 µM
- CC50 [21, 41]: > 100 µM
- TGI ([21]; read-out: TGI): > 100 µM
- GI50 ([21]; read-out: pGI50 (converted)): 6.76 µM
- CC50 [21, 42]: > 100 µM
- TGI ([21]; read-out: pTGI (converted)): > 100 µM
- growth at 0.01 µM [22]: 95%
- growth at 0.01 µM [23]: 103%
- GI50 ([24]; read-out: GI50): 4.53 µM
- CC50 [24, 41]: > 100 µM
- TGI ([24]; read-out: TGI): > 100 µM
- GI50 ([24]; read-out: pGI50 (converted)): 4.57 µM
- CC50 [24, 42]: > 100 µM
- TGI ([24]; read-out: pTGI (converted)): > 100 µM
- growth at 0.01 µM [25]: 100%
- GI50 ([26]; read-out: GI50): 3.47 µM
- CC50 [26, 41]: > 100 µM
- TGI ([26]; read-out: TGI): > 100 µM
- GI50 ([26]; read-out: pGI50 (converted)): 3.47 µM
- CC50 [26, 42]: > 100 µM
- TGI ([26]; read-out: pTGI (converted)): > 100 µM
- growth at 1 µM [27]: 87%
- growth at 1 µM [28]: 58%
- growth at 0.1 µM [29]: 101%
- growth at 1 µM [30]: 98%
- growth at 0.01 µM [31]: 106%
- GI50 ([32]; read-out: GI50): 3.48 µM
- CC50 [32, 41]: > 100 µM
- TGI ([32]; read-out: TGI): > 100 µM
- GI50 ([32]; read-out: pGI50 (converted)): 3.47 µM
- CC50 [32, 42]: > 100 µM
- TGI ([32]; read-out: pTGI (converted)): > 100 µM
- growth at 0.1 µM [33]: 91%
- growth at 0.1 µM [34]: 90%
- growth at 100 µM [35]: -38%
- growth at 0.01 µM [36]: 99%
- growth at 100 µM [37]: -35%
- GI50 ([38]; read-out: GI50): 14.2 µM
- CC50 [38, 41]: > 100 µM
- TGI ([38]; read-out: TGI): > 100 µM
- GI50 ([38]; read-out: pGI50 (converted)): 14.1 µM
- CC50 [38, 42]: > 100 µM
- TGI ([38]; read-out: pTGI (converted)): > 100 µM
- GI50 ([39]; read-out: GI50): 3.59 µM
- LC50 ([39]; read-out: LC50): > 100 µM
- TGI ([39]; read-out: TGI): > 100 µM
- GI50 ([39]; read-out: pGI50 (converted)): 3.63 µM
- LC50 ([39]; read-out: pLC50 (converted)): > 100 µM
- TGI ([39]; read-out: pTGI (converted)): > 100 µM
- growth at 0.01 µM [40]: 104%
